Source: the kinase profiling compilation of Christmann-Franck et al. (2016)

What was measured:
Assay in all cases: radiometric filter-binding kinase assay, Kinaseprofiler
INSRR (human) = INSRR (human) (UniProt P14616); conditions: ATP 200 µM
TSSK1B (human) = TSSK1B (human) (UniProt Q9BXA7); conditions: ATP 15 µM
ITK (human) = ITK (human) (UniProt Q08881); conditions: ATP 200 µM
STK3 (human) = STK3 (human) (UniProt Q13188); conditions: ATP 155 µM
SRPK3 (human) = SRPK3 (human) (UniProt Q9UPE1); conditions: ATP 15 µM
CDK5 CDK5R1 p25 (human) = CDK5 CDK5R1 p25 (human) (UniProt Q00535+Q15078); conditions: ATP 15 µM
PAK7 (human) = PAK7 (human) (UniProt Q9P286); conditions: ATP 15 µM
EPHA8 (human) = EPHA8 (human) (UniProt P29322); conditions: ATP 200 µM
BMX (human) = BMX (human) (UniProt P51813); conditions: ATP 45 µM
TNK2 (human) = TNK2 (human) (UniProt Q07912); conditions: ATP 70 µM
TAOK1 (human) = TAOK1 (human) (UniProt Q7L7X3); conditions: ATP 10 µM
MAPKAPK3 (human) = MAPKAPK3 (human) (UniProt Q16644); conditions: ATP 90 µM
PDGFRB (human) = PDGFRB (human) (UniProt P09619); conditions: ATP 200 µM
CDK2 CCNA2 (human) = CDK2 CCNA2 (human) (UniProt P24941+P20248); conditions: ATP 45 µM
SRPK2 (human) = SRPK2 (human) (UniProt P78362); conditions: ATP 10 µM
PIM3 (human) = PIM3 (human) (UniProt Q86V86); conditions: ATP 155 µM
MINK1 (human) = MINK1 (human) (UniProt Q8N4C8); conditions: ATP 185 µM
CDK3 CCNE1 (human) = CDK3 CCNE1 (human) (UniProt Q00526+P24864); conditions: ATP 200 µM
CAMK2G (human) = CAMK2G (human) (UniProt Q13555); conditions: ATP 10 µM
IKBKB (human) = IKBKB (human) (UniProt O14920); conditions: ATP 10 µM
HIPK1 (human) = HIPK1 (human) (UniProt Q86Z02); conditions: ATP 45 µM
ZAP70 (human) = ZAP70 (human) (UniProt P43403); conditions: ATP 15 µM
PRKCD (human) = PRKCD (human) (UniProt Q05655); conditions: ATP 15 µM
KIT (human) = KIT (human) (UniProt P10721); conditions: ATP 200 µM
BTK (human) = BTK (human) (UniProt Q06187); conditions: ATP 200 µM
TBK1 (human) = TBK1 (human) (UniProt Q9UHD2); conditions: ATP 155 µM
CLK3 (human) = CLK3 (human) (UniProt P49761); conditions: ATP 90 µM
CAMK1 (human) = CAMK1 (human) (UniProt Q14012); conditions: ATP 200 µM
[1] = target: JAK3 JH1 catalytic (human) (UniProt P52333); conditions: ATP 10 µM
TSSK2 (human) = TSSK2 (human) (UniProt Q96PF2); conditions: ATP 15 µM
STK4 (human) = STK4 (human) (UniProt Q13043); conditions: ATP 90 µM
MAP2K1 (human) = MAP2K1 (human) (UniProt Q02750); conditions: ATP 10 µM
PDPK1 (human) = PDPK1 (human) (UniProt O15530); conditions: ATP 10 µM

Sequence of TAOK1 (human) (Q7L7X3 whole entry, looked up): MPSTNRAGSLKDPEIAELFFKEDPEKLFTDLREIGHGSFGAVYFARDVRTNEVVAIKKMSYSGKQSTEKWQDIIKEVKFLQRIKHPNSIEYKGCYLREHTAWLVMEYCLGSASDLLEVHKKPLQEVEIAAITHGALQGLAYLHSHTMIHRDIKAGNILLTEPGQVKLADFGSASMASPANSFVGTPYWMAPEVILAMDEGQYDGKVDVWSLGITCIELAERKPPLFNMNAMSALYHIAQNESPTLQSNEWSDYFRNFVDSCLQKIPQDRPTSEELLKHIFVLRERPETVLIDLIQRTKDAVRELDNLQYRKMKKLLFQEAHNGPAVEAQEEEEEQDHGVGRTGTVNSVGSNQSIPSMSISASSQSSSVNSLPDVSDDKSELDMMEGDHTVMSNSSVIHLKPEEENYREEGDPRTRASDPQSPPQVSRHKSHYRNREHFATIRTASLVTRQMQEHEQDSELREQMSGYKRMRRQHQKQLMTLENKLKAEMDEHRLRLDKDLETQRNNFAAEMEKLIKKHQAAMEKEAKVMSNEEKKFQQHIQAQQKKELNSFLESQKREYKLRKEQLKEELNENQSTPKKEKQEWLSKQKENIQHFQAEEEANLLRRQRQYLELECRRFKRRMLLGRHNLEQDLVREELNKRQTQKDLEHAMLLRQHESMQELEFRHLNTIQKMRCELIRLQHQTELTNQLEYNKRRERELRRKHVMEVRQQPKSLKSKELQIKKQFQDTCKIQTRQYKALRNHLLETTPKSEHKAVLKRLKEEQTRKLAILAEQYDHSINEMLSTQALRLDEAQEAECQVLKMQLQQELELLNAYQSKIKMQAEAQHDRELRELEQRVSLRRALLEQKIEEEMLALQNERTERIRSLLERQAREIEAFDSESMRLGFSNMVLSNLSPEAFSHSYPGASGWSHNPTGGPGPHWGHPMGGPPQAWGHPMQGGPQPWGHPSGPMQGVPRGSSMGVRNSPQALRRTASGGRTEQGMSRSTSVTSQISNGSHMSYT
Sequence of PRKCD (human) (Q05655 whole entry, looked up): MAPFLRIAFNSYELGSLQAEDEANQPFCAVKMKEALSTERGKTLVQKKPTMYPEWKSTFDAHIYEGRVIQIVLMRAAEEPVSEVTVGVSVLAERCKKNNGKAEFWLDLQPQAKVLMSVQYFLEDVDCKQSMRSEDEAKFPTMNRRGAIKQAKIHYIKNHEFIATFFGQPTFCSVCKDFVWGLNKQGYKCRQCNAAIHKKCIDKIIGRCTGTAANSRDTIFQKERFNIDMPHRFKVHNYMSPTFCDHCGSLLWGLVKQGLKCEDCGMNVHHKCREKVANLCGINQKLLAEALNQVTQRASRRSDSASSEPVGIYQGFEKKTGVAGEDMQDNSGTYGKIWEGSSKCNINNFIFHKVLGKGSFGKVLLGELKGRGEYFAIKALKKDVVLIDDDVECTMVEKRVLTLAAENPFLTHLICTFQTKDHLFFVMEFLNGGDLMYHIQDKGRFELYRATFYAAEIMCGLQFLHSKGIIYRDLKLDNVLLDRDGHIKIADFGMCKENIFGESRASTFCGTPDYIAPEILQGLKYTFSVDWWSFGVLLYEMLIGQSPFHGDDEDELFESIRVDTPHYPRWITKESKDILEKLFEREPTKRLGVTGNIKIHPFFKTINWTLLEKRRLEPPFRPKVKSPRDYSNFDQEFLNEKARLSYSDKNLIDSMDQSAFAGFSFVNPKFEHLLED
Sequence of CLK3 (human) (P49761 whole entry, looked up): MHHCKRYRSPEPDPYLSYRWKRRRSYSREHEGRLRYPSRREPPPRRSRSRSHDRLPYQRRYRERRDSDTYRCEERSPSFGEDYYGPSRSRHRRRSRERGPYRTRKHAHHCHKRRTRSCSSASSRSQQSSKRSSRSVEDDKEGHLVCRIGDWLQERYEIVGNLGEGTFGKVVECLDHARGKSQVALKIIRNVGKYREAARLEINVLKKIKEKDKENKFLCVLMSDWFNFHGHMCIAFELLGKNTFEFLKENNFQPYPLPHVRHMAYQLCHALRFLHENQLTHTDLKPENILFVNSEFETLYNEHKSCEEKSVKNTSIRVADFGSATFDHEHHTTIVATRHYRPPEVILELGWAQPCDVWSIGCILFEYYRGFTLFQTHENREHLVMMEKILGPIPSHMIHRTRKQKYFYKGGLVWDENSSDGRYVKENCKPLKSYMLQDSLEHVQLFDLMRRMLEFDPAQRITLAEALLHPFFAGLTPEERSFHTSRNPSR
Sequence of STK4 (human) (Q13043 whole entry, looked up): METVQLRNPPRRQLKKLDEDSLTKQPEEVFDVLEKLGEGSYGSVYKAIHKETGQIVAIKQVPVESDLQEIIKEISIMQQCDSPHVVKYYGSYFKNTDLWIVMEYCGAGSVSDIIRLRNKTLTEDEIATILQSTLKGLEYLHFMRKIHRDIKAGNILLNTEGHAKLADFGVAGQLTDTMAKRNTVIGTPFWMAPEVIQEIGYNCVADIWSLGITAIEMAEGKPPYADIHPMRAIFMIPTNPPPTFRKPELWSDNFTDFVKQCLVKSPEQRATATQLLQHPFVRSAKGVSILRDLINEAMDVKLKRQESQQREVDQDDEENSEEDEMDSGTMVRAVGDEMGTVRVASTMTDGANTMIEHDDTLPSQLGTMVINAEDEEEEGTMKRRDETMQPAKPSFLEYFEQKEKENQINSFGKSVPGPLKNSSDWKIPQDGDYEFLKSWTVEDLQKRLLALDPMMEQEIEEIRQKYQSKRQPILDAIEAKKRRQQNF
Sequence of TSSK1B (human) (Q9BXA7 whole entry, looked up): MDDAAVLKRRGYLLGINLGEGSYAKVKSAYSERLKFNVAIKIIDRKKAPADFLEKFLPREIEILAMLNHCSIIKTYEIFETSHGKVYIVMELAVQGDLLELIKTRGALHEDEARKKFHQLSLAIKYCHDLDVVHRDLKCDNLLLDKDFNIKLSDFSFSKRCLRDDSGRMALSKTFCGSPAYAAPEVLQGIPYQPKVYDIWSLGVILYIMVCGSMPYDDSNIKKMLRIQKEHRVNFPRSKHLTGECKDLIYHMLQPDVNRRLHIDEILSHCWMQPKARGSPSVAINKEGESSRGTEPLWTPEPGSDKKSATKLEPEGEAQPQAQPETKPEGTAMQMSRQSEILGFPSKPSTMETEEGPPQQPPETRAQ
Sequence of CAMK1 (human) (Q14012 whole entry, looked up): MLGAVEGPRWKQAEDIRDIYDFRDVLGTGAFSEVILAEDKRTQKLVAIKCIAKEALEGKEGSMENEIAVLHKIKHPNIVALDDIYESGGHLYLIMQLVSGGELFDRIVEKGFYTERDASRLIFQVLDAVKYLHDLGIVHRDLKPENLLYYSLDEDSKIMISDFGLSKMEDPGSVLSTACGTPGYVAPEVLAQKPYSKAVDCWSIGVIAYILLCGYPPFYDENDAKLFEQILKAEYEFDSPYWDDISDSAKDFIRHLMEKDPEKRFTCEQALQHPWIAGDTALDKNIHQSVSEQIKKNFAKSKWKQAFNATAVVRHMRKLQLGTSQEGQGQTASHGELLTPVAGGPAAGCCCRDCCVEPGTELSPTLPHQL
Sequence of ZAP70 (human) (P43403 whole entry, looked up): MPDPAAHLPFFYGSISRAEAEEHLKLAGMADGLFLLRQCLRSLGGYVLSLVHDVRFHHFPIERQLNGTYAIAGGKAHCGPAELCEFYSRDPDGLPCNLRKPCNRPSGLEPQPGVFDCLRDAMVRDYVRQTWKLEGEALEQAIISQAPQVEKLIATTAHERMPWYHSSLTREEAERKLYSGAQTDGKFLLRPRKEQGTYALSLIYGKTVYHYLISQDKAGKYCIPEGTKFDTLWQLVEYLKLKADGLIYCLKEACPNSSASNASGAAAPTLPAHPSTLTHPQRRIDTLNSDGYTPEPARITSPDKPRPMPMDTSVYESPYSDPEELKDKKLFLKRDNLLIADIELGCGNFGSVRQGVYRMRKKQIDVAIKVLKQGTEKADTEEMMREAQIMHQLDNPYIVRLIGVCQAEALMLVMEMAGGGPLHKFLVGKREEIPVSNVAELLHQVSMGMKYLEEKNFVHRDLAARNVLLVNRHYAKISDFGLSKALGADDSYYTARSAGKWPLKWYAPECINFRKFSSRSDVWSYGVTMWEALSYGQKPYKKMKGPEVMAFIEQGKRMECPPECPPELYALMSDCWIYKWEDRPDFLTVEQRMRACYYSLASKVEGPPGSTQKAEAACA
Sequence of MAPKAPK3 (human) (Q16644 whole entry, looked up): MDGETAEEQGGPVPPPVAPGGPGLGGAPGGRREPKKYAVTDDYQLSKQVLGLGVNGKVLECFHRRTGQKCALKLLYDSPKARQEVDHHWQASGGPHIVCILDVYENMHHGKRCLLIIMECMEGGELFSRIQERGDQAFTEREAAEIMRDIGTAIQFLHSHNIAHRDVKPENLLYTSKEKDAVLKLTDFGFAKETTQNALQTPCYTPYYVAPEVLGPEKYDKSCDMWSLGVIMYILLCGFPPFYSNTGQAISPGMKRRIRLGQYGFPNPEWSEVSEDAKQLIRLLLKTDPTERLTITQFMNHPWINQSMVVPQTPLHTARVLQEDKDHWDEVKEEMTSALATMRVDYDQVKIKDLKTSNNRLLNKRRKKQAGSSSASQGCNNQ

SMILES: O=C1Nc2ccccc2/C1=C1\Nc2ccccc2\C1=N/O
- residual activity (INSRR (human); compound 1.0 µM): 2%
- residual activity (INSRR (human); compound 10.0 µM): 1%
- residual activity (TSSK1B (human); compound 1.0 µM): 78%
- residual activity (TSSK1B (human); compound 10.0 µM): 53%
- residual activity (ITK (human); compound 1.0 µM): 19%
- residual activity (ITK (human); compound 10.0 µM): 1%
- residual activity (STK3 (human); compound 1.0 µM): 6%
- residual activity (STK3 (human); compound 10.0 µM): 0%
- residual activity (SRPK3 (human); compound 1.0 µM): 85%
- residual activity (SRPK3 (human); compound 10.0 µM): 46%
- residual activity (CDK5 CDK5R1 p25 (human); compound 1.0 µM): 3%
- residual activity (CDK5 CDK5R1 p25 (human); compound 10.0 µM): 2%
- residual activity (PAK7 (human); compound 1.0 µM): 64%
- residual activity (PAK7 (human); compound 10.0 µM): 33%
- residual activity (EPHA8 (human); compound 1.0 µM): 84%
- residual activity (EPHA8 (human); compound 10.0 µM): 43%
- residual activity (BMX (human); compound 1.0 µM): 21%
- residual activity (BMX (human); compound 10.0 µM): 4%
- residual activity (TNK2 (human); compound 1.0 µM): 34%
- residual activity (TNK2 (human); compound 10.0 µM): 4%
- residual activity (TAOK1 (human); compound 1.0 µM): 83%
- residual activity (TAOK1 (human); compound 10.0 µM): 39%
- residual activity (MAPKAPK3 (human); compound 1.0 µM): 117%
- residual activity (MAPKAPK3 (human); compound 10.0 µM): 88%
- residual activity (PDGFRB (human); compound 1.0 µM): 84%
- residual activity (PDGFRB (human); compound 10.0 µM): 26%
- residual activity (CDK2 CCNA2 (human); compound 1.0 µM): 19%
- residual activity (CDK2 CCNA2 (human); compound 10.0 µM): 5%
- residual activity (SRPK2 (human); compound 1.0 µM): 96%
- residual activity (SRPK2 (human); compound 10.0 µM): 67%
- residual activity (PIM3 (human); compound 1.0 µM): 94%
- residual activity (PIM3 (human); compound 10.0 µM): 90%
- residual activity (MINK1 (human); compound 1.0 µM): 54%
- residual activity (MINK1 (human); compound 10.0 µM): 10%
- residual activity (CDK3 CCNE1 (human); compound 1.0 µM): 5%
- residual activity (CDK3 CCNE1 (human); compound 10.0 µM): 0%
- residual activity (CAMK2G (human); compound 1.0 µM): 12%
- residual activity (CAMK2G (human); compound 10.0 µM): 1%
- residual activity (IKBKB (human); compound 1.0 µM): 87%
- residual activity (IKBKB (human); compound 10.0 µM): 67%
- residual activity (HIPK1 (human); compound 1.0 µM): 90%
- residual activity (HIPK1 (human); compound 10.0 µM): 73%
- residual activity (ZAP70 (human); compound 1.0 µM): 79%
- residual activity (ZAP70 (human); compound 10.0 µM): 91%
- residual activity (PRKCD (human); compound 1.0 µM): 85%
- residual activity (PRKCD (human); compound 10.0 µM): 80%
- residual activity (KIT (human); compound 1.0 µM): 20%
- residual activity (KIT (human); compound 10.0 µM): 2%
- residual activity (BTK (human); compound 1.0 µM): 31%
- residual activity (BTK (human); compound 10.0 µM): 4%
- residual activity (TBK1 (human); compound 1.0 µM): 9%
- residual activity (TBK1 (human); compound 10.0 µM): 1%
- residual activity (CLK3 (human); compound 1.0 µM): 79%
- residual activity (CLK3 (human); compound 10.0 µM): 54%
- residual activity (CAMK1 (human); compound 1.0 µM): 72%
- residual activity (CAMK1 (human); compound 10.0 µM): 21%
- residual activity ([1]; compound 1.0 µM): 21%
- residual activity ([1]; compound 10.0 µM): 2%
- residual activity (TSSK2 (human); compound 1.0 µM): 95%
- residual activity (TSSK2 (human); compound 10.0 µM): 78%
- residual activity (STK4 (human); compound 1.0 µM): 8%
- residual activity (STK4 (human); compound 10.0 µM): 2%
- residual activity (MAP2K1 (human); compound 1.0 µM): 64%
- residual activity (MAP2K1 (human); compound 10.0 µM): 55%
- residual activity (PDPK1 (human); compound 1.0 µM): 53%
- residual activity (PDPK1 (human); compound 10.0 µM): 9%
